Drawing on ChEMBL document CHEMBL1142215, “Site-specific reduction of oxidative and lipid metabolism in adipose tissue of 3'-azido-3'-deoxythymidine-treated rats” (2007), this text covers Activity for one compound.

Molecules are shown by their SMILES. Calls of active or inactive are those of the source. No cut-off for these calls is given here.

For test [1], the target named is Fatty acid synthase (Rattus norvegicus) (UniProt P12785). As to the kind of experiment: Decrease in fatty acid synthase activity in lean Wistar rat inguinal adipose tissue assessed at 70 mg/kg/day by DNA quantification assay. It counts as organism-based.
Sequence of Fatty acid synthase (Rattus norvegicus) (P12785 whole entry): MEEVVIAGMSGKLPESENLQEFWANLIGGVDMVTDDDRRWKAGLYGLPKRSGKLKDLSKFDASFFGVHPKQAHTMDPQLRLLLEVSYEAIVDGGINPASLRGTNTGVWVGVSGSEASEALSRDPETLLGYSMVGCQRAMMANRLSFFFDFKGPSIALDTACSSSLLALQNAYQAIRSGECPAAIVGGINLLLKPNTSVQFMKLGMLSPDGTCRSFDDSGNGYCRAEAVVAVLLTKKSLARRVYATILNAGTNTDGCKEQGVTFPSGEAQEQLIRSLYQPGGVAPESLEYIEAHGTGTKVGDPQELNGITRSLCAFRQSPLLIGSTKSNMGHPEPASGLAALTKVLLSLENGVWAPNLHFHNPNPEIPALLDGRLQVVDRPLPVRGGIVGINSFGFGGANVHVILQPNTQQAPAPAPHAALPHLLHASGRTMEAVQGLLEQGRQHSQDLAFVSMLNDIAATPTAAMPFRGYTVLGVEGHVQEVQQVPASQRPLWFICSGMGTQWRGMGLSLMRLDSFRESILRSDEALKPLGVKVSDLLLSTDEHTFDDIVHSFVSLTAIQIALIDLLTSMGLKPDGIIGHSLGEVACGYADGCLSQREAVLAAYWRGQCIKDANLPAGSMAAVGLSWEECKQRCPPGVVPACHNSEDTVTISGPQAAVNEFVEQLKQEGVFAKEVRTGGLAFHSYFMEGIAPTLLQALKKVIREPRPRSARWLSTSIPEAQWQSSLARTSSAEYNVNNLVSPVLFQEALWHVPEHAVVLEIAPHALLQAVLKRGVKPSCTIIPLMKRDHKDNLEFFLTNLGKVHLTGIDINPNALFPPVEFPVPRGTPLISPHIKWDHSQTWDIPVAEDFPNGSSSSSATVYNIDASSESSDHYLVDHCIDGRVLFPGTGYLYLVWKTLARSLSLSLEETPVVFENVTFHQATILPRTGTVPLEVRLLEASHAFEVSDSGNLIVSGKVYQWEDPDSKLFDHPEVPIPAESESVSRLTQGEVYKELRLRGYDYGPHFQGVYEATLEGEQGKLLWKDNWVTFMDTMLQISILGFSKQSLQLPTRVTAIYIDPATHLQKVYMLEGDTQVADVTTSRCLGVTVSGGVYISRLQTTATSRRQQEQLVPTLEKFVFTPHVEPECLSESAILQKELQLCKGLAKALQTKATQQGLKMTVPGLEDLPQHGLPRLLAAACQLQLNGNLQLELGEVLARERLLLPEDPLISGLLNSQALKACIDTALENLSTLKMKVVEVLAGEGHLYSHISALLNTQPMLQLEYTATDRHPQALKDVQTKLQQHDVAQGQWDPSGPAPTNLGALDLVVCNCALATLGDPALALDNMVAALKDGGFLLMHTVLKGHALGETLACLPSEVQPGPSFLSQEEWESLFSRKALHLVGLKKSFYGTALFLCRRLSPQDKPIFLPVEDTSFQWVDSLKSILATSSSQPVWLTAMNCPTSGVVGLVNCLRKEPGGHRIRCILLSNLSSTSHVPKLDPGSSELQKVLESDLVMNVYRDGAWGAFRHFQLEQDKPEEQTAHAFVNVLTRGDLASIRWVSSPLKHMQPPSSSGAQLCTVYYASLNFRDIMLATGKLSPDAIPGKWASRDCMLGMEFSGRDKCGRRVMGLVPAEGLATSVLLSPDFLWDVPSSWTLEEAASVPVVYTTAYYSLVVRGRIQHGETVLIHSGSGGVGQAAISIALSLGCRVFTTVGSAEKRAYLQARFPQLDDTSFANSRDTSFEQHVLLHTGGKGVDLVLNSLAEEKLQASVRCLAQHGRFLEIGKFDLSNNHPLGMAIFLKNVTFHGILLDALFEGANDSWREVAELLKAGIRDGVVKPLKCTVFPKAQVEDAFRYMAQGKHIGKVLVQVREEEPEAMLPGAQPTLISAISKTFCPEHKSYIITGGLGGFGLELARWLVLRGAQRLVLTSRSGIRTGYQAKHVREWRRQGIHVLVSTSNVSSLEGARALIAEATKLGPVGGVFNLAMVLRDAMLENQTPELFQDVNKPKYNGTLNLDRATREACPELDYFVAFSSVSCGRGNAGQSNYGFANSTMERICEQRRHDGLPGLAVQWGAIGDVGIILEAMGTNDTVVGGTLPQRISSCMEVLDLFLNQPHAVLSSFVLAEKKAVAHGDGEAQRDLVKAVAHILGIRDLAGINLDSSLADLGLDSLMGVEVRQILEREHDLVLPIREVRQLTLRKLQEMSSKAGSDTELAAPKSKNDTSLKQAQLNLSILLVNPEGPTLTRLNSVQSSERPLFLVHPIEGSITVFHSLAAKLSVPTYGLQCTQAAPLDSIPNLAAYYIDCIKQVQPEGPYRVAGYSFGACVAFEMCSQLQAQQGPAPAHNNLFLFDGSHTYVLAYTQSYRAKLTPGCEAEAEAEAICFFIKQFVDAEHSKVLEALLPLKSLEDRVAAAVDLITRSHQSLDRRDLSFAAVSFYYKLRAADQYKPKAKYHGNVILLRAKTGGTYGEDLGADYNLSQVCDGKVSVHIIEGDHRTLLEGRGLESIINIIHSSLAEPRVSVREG
For test [2], the system named is Rattus norvegicus. The test is described as follows: Decrease in cytochrome c oxidase activity in cafteria-fed Wistar rat inguinal adipose tissue at 70 mg/kg/day by DNA quantification assay. The format is organism-based.
Test [3] deals with Rattus norvegicus. As to the kind of experiment: Increase in cellularity in cafteria-fed Wistar rat inguinal tissue assessed as DNA content at 70 mg/kg/day. It counts as functional.
Test [4] has as its system Rattus norvegicus. The test is described as follows: Effect on HDL cholesterol level in lean Wistar rat at 70 mg/kg/day relative to control. The format is functional.
The test system of test [5] is Rattus norvegicus. The test is described as follows: Decrease in inguinal adipocyte size in cafteria-fed Wistar rat at 70 mg/kg/day. The format is functional.
Test [6] relates to Rattus norvegicus. The test is described as follows: Effect on HDL cholesterol level in cafteria-fed Wistar rat at 70 mg/kg/day relative to control. The format is functional.
Test [7] has as its system Rattus norvegicus. The test is described as follows: Decrease in epididymal adipocyte size in cafteria-fed Wistar rat at 70 mg/kg/day. The format is functional, organism-based.
Test [8] has as its system Rattus norvegicus. The test is described as follows: Effect on AMPK phosphorylation level in rat epididymal adipose cell at 70 mg/kg/day. The format is organism-based.
Test [9] has as its target Fatty acid synthase (Rattus norvegicus) (UniProt P12785). As to the kind of experiment: Decrease in fatty acid synthase activity in Wistar cafteria-fed rat epididymal adipose tissue at 70 mg/kg/day by DNA quantification assay. The format is organism-based.
Test [10] concerns Rattus norvegicus. As to the kind of experiment: Increase in body weight in cafteria-fed Wistar rat at 70 mg/kg/day after 4 weeks. The format is functional.
Test [11] has as its target Fatty acid synthase (Rattus norvegicus) (UniProt P12785). The test is described as follows: Decrease in fatty acid synthase activity in lean Wistar rat epididymal adipose tissue assessed at 70 mg/kg/day by DNA quantification assay. The format is organism-based.
Test [12] relates to Rattus norvegicus. The test is described as follows: Decrease in cytochrome c oxidase activity in lean Wistar rat inguinal adipose tissue at 70 mg/kg/day by DNA quantification assay. It counts as organism-based.
Test [13] concerns the target Fatty acid synthase (Rattus norvegicus) (UniProt P12785). As to the kind of experiment: Decrease in fatty acid synthase activity in Wistar cafteria-fed rat inguinal adipose tissue at 70 mg/kg/day by DNA quantification assay. It counts as organism-based.
Test [14] relates to Rattus norvegicus. As to the kind of experiment: Effect on LDL cholesterol level in lean Wistar rat at 70 mg/kg/day relative to control. The format is functional.
Test [15] has as its system Rattus norvegicus. The test is described as follows: Effect on LDL cholesterol level in cafteria-fed Wistar rat at 70 mg/kg/day relative to control. It counts as functional.
Test [16] has as its system Rattus norvegicus. As to the kind of experiment: Increase in triglyceride level in cafteria-fed Wistar rat at 70 mg/kg/day relative to control. The format is functional.
Test [17] concerns Rattus norvegicus. As to the kind of experiment: Increase in body weight in lean Wistar rat at 70 mg/kg/day after 4 weeks. The format is functional.
In test [18] the test system is Rattus norvegicus. As to the kind of experiment: Increase in AMPK phosphorylation level in rat inguinal adipose cells at 70 mg/kg/day. The format is organism-based.
Test [19] has as its system Rattus norvegicus. As to the kind of experiment: Increase in triglyceride level in lean Wistar rat at 70 mg/kg/day relative to control. It counts as functional.

Take `Cc1cn([C@H]2C[C@H](N=[N+]=[N-])[C@@H](CO)O2)c(=O)[nH]c1=O` [ZIDOVUDINE]: the Activity in [1] was determined as 0.72 U/mg; in the test on Rattus norvegicus [2], 6.43 U/mg; with Rattus norvegicus [3] it was 625 µg; in the test on Rattus norvegicus [4], 0.43 mM; with Rattus norvegicus [5], 2082 um2; with Rattus norvegicus [6], 0.32 mM. Moreover, the Activity with Rattus norvegicus [10] stood at 443 g; in the test on Rattus norvegicus [12], 6.61 U/mg; in test [13], 0.55 U/mg; in the test with Rattus norvegicus [14], 0.27 mM; in the test with Rattus norvegicus [15], 0.6 mM; with Rattus norvegicus [16] it was 1.96 mM. Moreover, the figures for the Activity in the test with Rattus norvegicus [17] and in the test on Rattus norvegicus [19] were 401 g and 2.11 mM, respectively. Moreover, the outcome (in the test with Rattus norvegicus [7]; in test [9]; in test [11]) was inactive. In addition, the outcome in the test with Rattus norvegicus [8] and in the test with Rattus norvegicus [18] was Active.
